Source: patent US7282513B2, “Heteroaryl substituted spirocyclic sulfamides for inhibition of gamma secretase” (Merck Sharp & Dohme Limited, priority 2002, dated 2007)

Cn1nc(-c2ccc(F)cc2)cc1-c1ccc2c(c1)C[C@H]1CC[C@@H](C2)[C@]12CN(CC(F)(F)F)S(=O)(=O)N2 (single isomer, unassigned) [Example 15]
melting point: 185 °C
